Assay results reported in patent US8076332B2, “N- (2-aminophenyl) benzamide derivative having urea structure” (Santen Pharmaceutical Co., Ltd., priority 2006, dated 2011).

Assays:
[1] = test system: human trabecular meshwork cell line (TM-1 cells); assay: Test for evaluation of effect of morphological change on trabecular meshwork cells (cell shape index, CSI); assay type: cell-based; settings: final concentration 10 μM, incubation 24 hours, CSI=4π×(Cell Area)/(Cell Perimeter)^2, average per group, Control 0.730
Procedure: 1. Test for Evaluation of Effect of Morphological Change on Trabecular Meshwork Cells
As a method for evaluating a cellular morphological change, an evaluation system using the cell shape index (hereinafter referred to as “CSI”) as an index has been reported in The Journal of Clinical Investigation, 103, 1141-1150 (1999). Therefore, according to the method described in the above document, an effect of morphological change of the present compounds on trabecular meshwork cells was evaluated.
A human trabecular meshwork cell line (hereinafter referred to as “TM-1 cells”) reported in Investigative Opthalmology & Visual Science, 43, 151-161 (2002) was used.
Culture medium 1: A reagent was prepared by adding fetal bovine serum (10%), L-glutamine (2 mM), amphotericin B (2.5 μg/mL), and gentamicin (25 μg/mL) to Dulbecco's modified Eagle medium (hereinafter referred to as “D-MEM”).
Culture medium 2: Fetal bovine serum (3%), L-glutamine (2 mM), amphotericin B (2.5 μg/mL), and gentamicin (25 μg/mL) were added to D-MEM.
Cell staining liquid: A mixed liquid of Calcein-AM (16 μM) and Hoechst 33342 (40 μM) was prepared by diluting a Calcein-AM solution (cytoplasmic staining reagent, manufactured by Dojindo Laboratories) and a Hoechst 33342 solution (nuclear staining reagent, manufactured by Dojindo Laboratories) with D-MEM containing L-glutamine (2 mM), amphotericin B (2.5 μg/mL), and gentamicin (25 μg/mL).
TM-1 cells subcultured at 37° C. in a 8% carbon dioxide gas atmosphere were treated with a trypsin/EDTA solution (0.05% trypsin and 0.53 mM tetrasodium ethylenediaminetetraacetate) at 24 hours before performing a drug treatment mentioned below and seeded on a 96-well culture plate. The culture medium 1 was used for the subculture of the cells. The culture medium 2 was used for the cell culture after seeding the cells on the plate.
A test compound was dissolved in dimethyl sulfoxide, whereby a 5 mM solution was prepared. Then, the resulting solution was diluted with the culture medium 2, whereby a 200 μM test compound solution was prepared.
It has been reported that Y-27632 which is a Rho kinase inhibitor induces a morphological change in trabecular meshwork cells in Investigative Ophthalmology & Visual Science, 42, 137-144 (2001). Therefore, Y-27632 (produced according to the method described in WO 90/05723) was used as a positive control, and dissolved in dimethyl sulfoxide in the same manner as the test compound, whereby a 5 mM solution was prepared, and then, the resulting solution was diluted with the culture medium 2, whereby a 200 μM positive control compound solution was prepared.
1) To a 96-well culture plate, a solution of TM-1 cells adjusted to a cell density of […] was added in an amount of 95 μL (1.5×10^4 cells) per well.
2) Incubation was performed at 37° C. in a 8% carbon dioxide gas atmosphere for 24 hours.
3) The test compound solution or positive control compound solution was added in an amount of 5 μL per well (the final concentration of the test compound or positive control compound was 10 μM). As a control, the culture medium 2 containing dimethyl sulfoxide (4%) was added in an amount of 5 μL per well.
4) Incubation was performed at 37° C. in a 8% carbon dioxide gas atmosphere for 24 hours.
5) The cell staining liquid was added in an amount of 10 μL per well.
6) Incubation was performed at 37° C. in a 8% carbon dioxide gas atmosphere for 1 hour to stain the cells.
7) A 37% formaldehyde solution was added in an amount of 10 μL per well.
8) Incubation was performed at room temperature for 1 hour to fix the cells.
9) Washing with phosphate-buffered saline was performed.
10) Using Array Scan Vti HCS reader (manufactured by Cellomics), images of stained cells magnified with a 20 times objective lens were captured in 80 fields (10 fields×8 wells) per test compound addition group.
11) CSI was calculated for each cell and an average value was obtained for each test compound addition group. […]

[2] = test system: male Japanese White rabbits; assay: Test for evaluation of intraocular pressure-lowering effect (intracameral administration); assay type: in vivo; settings: 20 μL of 1 mM administration liquid to one eye, at 9 hours after administering, versus vehicle control group, 6 cases per group
Procedure: 2. Test for Evaluation of Intraocular Pressure-Lowering Effect
In order to evaluate an intraocular pressure-lowering effect of the present compounds, a test for evaluation of intraocular pressure-lowering effect of intracameral administration of a drug using male Japanese White rabbits was performed.
A test compound was dissolved or suspended in physiological saline containing 0.5% dimethyl sulfoxide, whereby a 1 mM test compound administration liquid was prepared.
One drop of 0.4% oxybuprocaine hydrochloride eye drop was instilled into both eyes of each male Japanese White rabbit to achieve local anesthesia, and thereafter, the intraocular pressure was measured using an applanation tonometer. Then, by using a syringe fitted with a 30-gauge needle, the test compound administration liquid (20 μL) was intracamerally administered to one eye. As a control, 20 μL of the vehicle (physiological saline containing 0.5% dimethyl sulfoxide) for the test compound was intracamerally administered. After the lapse of a certain period of time from the administration of the test compound or vehicle, one drop of 0.4% oxybuprocaine hydrochloride eye drop was instilled into the administered eye to achieve local anesthesia, and thereafter, the intraocular pressure was measured using an applanation tonometer.
The intraocular pressure-lowering effect of each test compound was evaluated by calculating an intraocular pressure reduction rate. The intraocular pressure reduction rate (%) was calculated using the following equation. (Intraocular Pressure Reduction rate(%))=100×(Average Value of Intraocular Pressure of Control Group)−(Average Value of Intraocular Pressure of Each Test Compound Administration Group)/(Average Value of Intraocular Pressure of Control Group) (Test Results)
As an example of the test results, the intraocular pressure reduction rates of the respective test compound administration groups at 9 hours after administering the respective test compounds (Compound 1-59, Compound 1-80, and Compound 2-2) are shown in Table II (one group consisting of 6 cases).

Row | Structure (SMILES) | CSI [1] | Intraocular Pressure Reduction Rate (%) [2] [%]
1 | CNCCN(Cc1ccc(C(=O)Nc2ccccc2N)cc1)C(=O)Nc1ccc2c(c1)OCCO2 [Compound 1-23, N-(2-Aminophenyl)-4-[3-(2,3-dihydrobenzo[1,4]dioxin-6-yl)-1-(2-methylamino-ethyl)ureidomethyl]benzamide] | 0.534 | 
2 | COc1ccccc1NC(=O)N(CCCN(C)C)Cc1ccc(C(=O)Nc2ccccc2N)cc1 [Compound 2-3, N-(2-Aminophenyl)-4-[1-(3-dimethylaminopropyl)-3-(2-methoxyphenyl)ureidomethyl]benzamide] | 0.618 | 
3 | Nc1ccccc1NC(=O)c1ccc(CN(CCCN2CCOCC2)C(=O)NCCc2ccc3c(c2)OCO3)cc1 [Compound 1-59, N-(2-Aminophenyl)-4-[3-[2-(benzo[1,3]dioxol-5-yl)ethyl]-1-[3-(morpholin-4-yl)propyl]ureidomethyl]benz-amide] | 0.571 | 19
4 | CN(C)CCN(Cc1ccc(C(=O)Nc2ccccc2N)cc1)C(=O)NCc1ccccc1 [Compound 1-5, N-(2-Aminophenyl)-4-[3-benzyl-1-(2-dimethylaminoethyl)ureidomethyl]benzamide] | 0.636 | 
5 | CN1CCN(CCN(Cc2ccc(C(=O)Nc3ccccc3N)cc2)C(=O)Nc2ccc(F)c(F)c2)CC1 [Compound 1-113, N-(2-Aminophenyl)-4-[3-(3,4-difluorophenyl)-1-[2-(4-methylpiperazin-1-yl)ethyl]-ureidomethyl]benzamide] | 0.585 | 
6 | CN(C)CCN(Cc1ccc(C(=O)Nc2ccccc2N)cc1)C(=O)Nc1ccc2c(c1)OCCO2 [Compound 1-80, N-(2-Aminophenyl)-4-[3-(2,3-dihydrobenzo[1,4]dioxin-6-yl)-1-(2-dimethylamino-ethyl)ureidomethyl]benzamide] | 0.543 | 18
7 | Cc1cc(NC(=O)N(CCCN2CCOCC2)Cc2ccc(C(=O)Nc3ccccc3N)cc2)ccc1F [Compound 1-135] | 0.555 | 
8 | CN(C)CCCN(Cc1ccc(C(=O)Nc2ccccc2N)cc1)C(=O)Nc1ccc(F)c(F)c1 [Compound 2-2, N-(2-Aminophenyl)-4-[3-(3,4-difluorophenyl)-1-(3-dimethylaminopropyl)ureidomethyl]benzamide] | 0.585 | 13
9 | CCN1CCCC1CN(Cc1ccc(C(=O)Nc2ccccc2N)cc1)C(=O)Nc1ccc2c(c1)OCCO2 (stereo not shown) [Compound 1-50, N-(2-Aminophenyl)-4-[3-(2,3-dihydrobenzo[1,4]dioxin-6-yl)-1-(1-ethylpyrrolidin-2-ylmethyl)ureidomethyl] benzamide] | 0.617 | 
10 | Nc1ccccc1NC(=O)c1ccc(CN(CCCN2CCOCC2)C(=O)Nc2ccc(OC(F)F)cc2)cc1 [Compound 1-60, N-(2-Aminophenyl)-4-[3-(4-difluoromethoxyphenyl)-1-[3-(morpholin-4-yl)propyl]ureidomethyl]benzamide] | 0.608 | 
11 | COc1ccc(NC(=O)N(Cc2ccc(C(=O)Nc3ccccc3N)cc2)CC(C)(C)CN(C)C)cc1OC [Compound 1-36, N-(2-Aminophenyl)-4-[3-(3,4-dimethoxyphenyl)-1-(3-dimethylamino-2,2-dimethyl-propyl)ureidomethyl]benzamide] | 0.539 | 
12 | CN(C)CCCN(Cc1ccc(C(=O)Nc2ccccc2N)cc1)C(=O)Nc1cccnc1 [Compound 1-104, N-(2-Aminophenyl)-4-[1-(3-dimethylaminopropyl)-3-(pyridin-3-yl)ureidomethyl]-benzamide] | 0.609 | 
13 | Nc1ccccc1NC(=O)c1ccc(CN(CCO)C(=O)NCCc2ccccc2)cc1 [Compound 1-49, N-(2-Aminophenyl)-4-[1-(2-hydroxyethyl)-3-phenylethyl-ureidomethyl]benzamide] | 0.630 | 
